The results in this text go back to patent US10160753B2, “Indazole compounds as IRAK4 inhibitors” (Aurigene Discovery Technologies Limited, priority 2014, dated 2018).

Where a name gives a salt, the structure may show the parent alone. A value given as a limit tells only on which side of the number the result lay.

This test has as its target T1, recombinant IRAK-4 kinase (Homo sapiens, UniProt Q9NWZ3).
T1 construct: purchased Millipore, USA
T1 sequence (Q9NWZ3 1-460): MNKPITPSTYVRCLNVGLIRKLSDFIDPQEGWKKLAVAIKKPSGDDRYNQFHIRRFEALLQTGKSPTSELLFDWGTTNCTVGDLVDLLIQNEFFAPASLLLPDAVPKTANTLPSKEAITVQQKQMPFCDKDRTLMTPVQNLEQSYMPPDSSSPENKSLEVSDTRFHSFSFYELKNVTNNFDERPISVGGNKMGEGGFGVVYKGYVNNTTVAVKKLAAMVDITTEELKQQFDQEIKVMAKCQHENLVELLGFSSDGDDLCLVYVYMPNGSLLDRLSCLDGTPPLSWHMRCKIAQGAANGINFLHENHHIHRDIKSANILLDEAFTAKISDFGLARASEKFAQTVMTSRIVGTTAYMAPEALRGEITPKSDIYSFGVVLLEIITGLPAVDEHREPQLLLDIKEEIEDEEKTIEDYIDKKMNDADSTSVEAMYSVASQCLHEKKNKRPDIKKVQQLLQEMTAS
In words: IRAK-4 Biochemical Assay (TR-FRET). To be noted: 30 min pre-incubation, 100 nM Biotin Histone H3, 20 μM ATP, read-out: IC50 values for IRAK4 activity. Background: In TR-FRET formats the signal depends on donor and acceptor labels being close together.
Take `COc1cc(-c2nc(C(=O)Nc3cc4cnn(C)c4cc3N3CCC(O)CC3)co2)ccn1` [Example 101, N-(6-(4-hydroxypiperidin-1-yl)-1-methyl-1H-indazol-5-yl)-2-(2-methoxypyridin-4-yl)oxazole-4-carboxamide]: the IC50 is < 50 nM.
Then `Cn1cc2cc(NC(=O)c3cccc(-c4cn[nH]c4)n3)c(C3CCCCC3)cc2n1` [Example 13, N-(6-cyclohexyl-2-methyl-2H-indazol-5-yl)-6-(1H-pyrazol-4-yl)picolinamide hydrochloride], with < 50 nM.
Consider `Cc1cc(-c2nc(C(=O)Nc3cc4cnn(C5CC5)c4cc3N3CCCCC3)co2)ccn1` [Example 31, N-(1-cyclopropyl-6-(piperidin-1-yl)-1H-indazol-5-yl)-2-(2-methylpyridin-4-yl)oxazole-4-carboxamide hydrochloride], for which the IC50 was < 50 nM.
Turning to `Cn1cc(-c2cccc(C(=O)Nc3cc4cn(C)nc4cc3N3CCCCC3)n2)cn1` [Example 19, 6-(1-methyl-1H-pyrazol-4-yl)-N-(2-methyl-6-(piperidin-1-yl)-2H-indazol-5-yl)picolinamide], the IC50 is < 50 nM.
As to `Cc1cc(-c2nc(C(=O)Nc3cc4cn(C)nc4cc3N3CCCC(F)C3)co2)ccn1` (centres unmarked) [Example 79, N-(6-(3-fluoropiperidin-1-yl)-2-methyl-2H-indazol-5-yl)-2-(2-methylpyridin-4-yl)oxazole-4-carboxamide], the IC50 is < 50 nM.
The same measure for `COc1cc(-c2nc(C(=O)Nc3cc4cn(C)nc4cc3N3CCC(O)CC3)co2)ccn1` [Example 107, N-(6-(4-hydroxypiperidin-1-yl)-2-methyl-2H-indazol-5-yl)-2-(2-methoxypyridin-4-yl)oxazole-4-carboxamide hydrochloride]: < 50 nM; for `C[C@H](O)Cn1cc(-c2cccc(C(=O)Nc3cc4cnn(C)c4cc3C3CC3)n2)cn1` [Example 46, (S)—N-(6-cyclopropyl-1-methyl-1H-indazol-5-yl)-6-(1-(2-hydroxypropyl)-1H-pyrazol-4-yl)picolinamide]: 50 to 100 nM.
For `Cc1cc(-c2nc(C(=O)Nc3cc4cn(C5CCCC5)nc4cc3N3CCCCC3)co2)ccn1` [Example 4, N-(2-cyclopentyl-6-(piperidin-1-yl)-2H-indazol-5-yl)-2-(2-methylpyridin-4-yl) oxazole-4-carboxamide], the half-inhibitory concentration (IC50) is < 50 nM.
Consider `Cc1cc(-c2nc(C(=O)Nc3cc4cn(C5CCCC5)nc4cc3C#N)co2)ccn1` [Example 5, N-(6-cyano-2-cyclopentyl-2H-indazol-5-yl)-2-(2-methylpyridin-4-yl) oxazole-4-carboxamide], for which the half-inhibitory concentration (IC50) was < 50 nM.
Regarding `COCC(=O)OC1CCN(c2cc3c(cc2NC(=O)c2coc(-c4ccnc(C)c4)n2)c(C)nn3C)CC1` [Example 106, 1-(1,3-dimethyl-5-(2-(2-methylpyridin-4-yl)oxazole-4-carboxamido)-1H-indazol-6-yl)piperidin-4-yl 2-methoxyacetate], the IC50 is < 50 nM.
On to `Cn1cc2cc(NC(=O)c3coc(N4CC[C@H](N)C4)n3)c(C3CC3)cc2n1` [Example 54, (S)-2-(3-aminopyrrolidin-1-yl)-N-(6-cyclopropyl-2-methyl-2H-indazol-5-yl)oxazole-4-carboxamide], for which the half-inhibitory concentration (IC50) is > 100 nM.
For the compound `Cn1cc2cc(NC(=O)c3cccc(N4CC[C@@H](N)C4)n3)c(N3CCCCC3)cc2n1` [Example 42, (R)-6-(3-aminopyrrolidin-1-yl)-N-(2-methyl-6-(piperidin-1-yl)-2H-indazol-5-yl)picolinamide], the half-inhibitory concentration (IC50) was in the range of 50 to 100 nM.
As for `COCCn1nc(C)c2cc(NC(=O)c3coc(-c4ccnc(C)c4)n3)c(N3CCC(O)CC3)cc21` [Example 116, N-(6-(4-hydroxypiperidin-1-yl)-1-(2-methoxyethyl)-3-methyl-1H-indazol-5-yl)-2-(2-methylpyridin-4-yl)oxazole-4-carboxamide], the concentration for half-maximal inhibition (IC50) is < 50 nM.
Then `Cc1cc(-c2nc(C(=O)Nc3cc4cnn(C)c4cc3N3CCC(O)CC3)co2)ccn1` [Example 77, N-(6-(4-hydroxypiperidin-1-yl)-1-methyl-1H-indazol-5-yl)-2-(2-methylpyridin-4-yl)oxazole-4-carboxamide], with < 50 nM.
Then `Cc1cc(-c2nc(C(=O)Nc3cc4cn(C)nc4cc3C3CC3)co2)ccn1` [Example 16, N-(6-cyclopropyl-2-methyl-2H-indazol-5-yl)-2-(2-methylpyridin-4-yl)oxazole-4-carboxamide hydrochloride], with < 50 nM; and `C[C@H](O)Cn1cc(-c2cccc(C(=O)Nc3cc4cn(C)nc4cc3C3CC3)n2)cn1` [Example 47, (S)—N-(6-cyclopropyl-2-methyl-2H-indazol-5-yl)-6-(1-(2-hydroxypropyl)-1H-pyrazol-4-yl)picolinamide], with < 50 nM; and `Cc1cc(-c2nc(C(=O)Nc3cc4cn(C)nc4cc3N3CCCC(CO)C3)co2)ccn1` (centres unmarked) [Example 82, N-(6-(3-(hydroxymethyl)piperidin-1-yl)-2-methyl-2H-indazol-5-yl)-2-(2-methylpyridin-4-yl)oxazole-4-carboxamide], with < 50 nM.
As for `COCCn1ncc2cc(NC(=O)c3coc(-c4ccnc(C)c4)n3)c(N3CCC(O)CC3)cc21` [Example 75, N-(6-(4-hydroxypiperidin-1-yl)-1-(2-methoxyethyl)-1H-indazol-5-yl)-2-(2-methylpyridin-4-yl)oxazole-4-carboxamide], the IC50 was < 50 nM.
Regarding `Cn1cc2cc(NC(=O)c3coc(-c4ccnc(N)c4)n3)c(N3CCC(CO)CC3)cc2n1` [Example 100, 2-(2-aminopyridin-4-yl)-N-(6-(4-(hydroxymethyl)piperidin-1-yl)-2-methyl-2H-indazol-5-yl)oxazole-4-carboxamide hydrochloride], the IC50 was < 50 nM.
In the case of `Cc1cc(-c2ccc(C(=O)Nc3cc4cn(C)nc4cc3N3CCCC(O)C3)o2)ccn1` (centres unmarked) [Example 70, N-(6-(3-hydroxypiperidin-1-yl)-2-methyl-2H-indazol-5-yl)-5-(2-methylpyridin-4-yl)furan-2-carboxamide], the IC50 is < 50 nM.
Turning to `Cc1cc(-c2nc(C(=O)Nc3cc4c(C)nn(C)c4cc3N3CCC(F)CC3)co2)ccn1` [Example 87, N-(6-(4-fluoropiperidin-1-yl)-1,3-dimethyl-1H-indazol-5-yl)-2-(2-methylpyridin-4-yl)oxazole-4-carboxamide], the IC50 is < 50 nM.
Consider `Cc1cc(-c2nc(C(=O)Nc3cc4cn(C)nc4cc3N3CCCC3)co2)ccn1` [Example 63, N-(2-methyl-6-(pyrrolidin-1-yl)-2H-indazol-5-yl)-2-(2-methylpyridin-4-yl)oxazole-4-carboxamide], for which the IC50 is < 50 nM.
For `Cc1cc(-c2nc(C(=O)Nc3cc4cn(C5CCCC5)nc4cc3C3CC3)co2)ccn1` [Example 6, N-(2-cyclopentyl-6-cyclopropyl-2H-indazol-5-yl)-2-(2-methylpyridin-4-yl) oxazole-4-carboxamide], the IC50 was < 50 nM.
Turning to `Cn1cc2cc(NC(=O)c3cccc(-c4ccc(F)nc4)n3)c(N3CCCCC3)cc2n1` [Example 12, 6′-fluoro-N-(2-methyl-6-(piperidin-1-yl)-2H-indazol-5-yl)-[2,3′-bipyridine]-6-carboxamide hydrochloride], the IC50 was < 50 nM.
In the case of `Cn1cc2cc(NC(=O)c3coc(-c4ccnc(NS(C)(=O)=O)c4)n3)c(N3CCC(O)CC3)cc2n1` [Example 123, N-(6-(4-hydroxypiperidin-1-yl)-2-methyl-2H-indazol-5-yl)-2-(2-(methylsulfonamido)pyridin-4-yl) oxazole-4-carboxamide], the IC50 is < 50 nM.
With `Nc1ccc(-c2cccc(C(=O)Nc3cc4cn(C5CCCC5)nc4cc3N3CCOCC3)n2)cn1` [Example 9, 6′-amino-N-(2-cyclopentyl-6-morpholino-2H-indazol-5-yl)-[2,3′-bipyridine]-6-carboxamide 2,2,2-trifluoroacetate], the IC50 was < 50 nM.

One may read the IC50 as the concentration at which inhibition is half-maximal.
